Like-named read-outs stand apart in the source and are kept apart here.
Assays:
ATF4 = test: HEK-ATF4 High Content Imaging assay (prevention of Tunicamycin induced ISR; ATF4 signal ratio between nucleus and cytoplasm); assay type: cell-based
Procedure, shortened: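 Wild-type HEK293 cells in 0.3% FBS medium were co-treated with compounds and Tunicamycin (3.3 μM in prediluted medium, 11-fold over final) for 6 h at 37 °C. Fixed cells were immunostained for ATF4 with Hoechst nuclei; imaging gave nuclear/cytoplasmic ATF4 ratio, with nuclei counts as toxicity control.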

[1] = biological target: T1, human ERG potassium channel (hERG) (Homo sapiens, UniProt Q12809); test: hERG channel tail current recording using in vitro Rapid ICE (automated patch-clamp, QPatch HTX); assay type: cell-based
T1 construct: expressed in transfected cells; host or cells: HEK293, stably transfected, tetracycline-inducible promoter
Procedure, shortened: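 Automated patch clamp on tetracycline-induced HEK293 hERG cells; pulse −80 to −50 mV 200 ms, +20 mV 4.8 s, −50 mV 5 s tail, extracellular pH 7.4. Compound at 0.3, 3, 30 μM (0.3% DMSO), 5 min exposure; tail current versus vehicle gives % inhibition and estimated IC50.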

[2] = Homo sapiens, Wild-type HEK293 cells, Tunicamycin induced ISR, 6 h, read-out: IIEK-ATF4 Activity
[3] = Table 24 category key, read-out: HEK-ATF4 Activity*

T1 sequence (Q12809 whole entry): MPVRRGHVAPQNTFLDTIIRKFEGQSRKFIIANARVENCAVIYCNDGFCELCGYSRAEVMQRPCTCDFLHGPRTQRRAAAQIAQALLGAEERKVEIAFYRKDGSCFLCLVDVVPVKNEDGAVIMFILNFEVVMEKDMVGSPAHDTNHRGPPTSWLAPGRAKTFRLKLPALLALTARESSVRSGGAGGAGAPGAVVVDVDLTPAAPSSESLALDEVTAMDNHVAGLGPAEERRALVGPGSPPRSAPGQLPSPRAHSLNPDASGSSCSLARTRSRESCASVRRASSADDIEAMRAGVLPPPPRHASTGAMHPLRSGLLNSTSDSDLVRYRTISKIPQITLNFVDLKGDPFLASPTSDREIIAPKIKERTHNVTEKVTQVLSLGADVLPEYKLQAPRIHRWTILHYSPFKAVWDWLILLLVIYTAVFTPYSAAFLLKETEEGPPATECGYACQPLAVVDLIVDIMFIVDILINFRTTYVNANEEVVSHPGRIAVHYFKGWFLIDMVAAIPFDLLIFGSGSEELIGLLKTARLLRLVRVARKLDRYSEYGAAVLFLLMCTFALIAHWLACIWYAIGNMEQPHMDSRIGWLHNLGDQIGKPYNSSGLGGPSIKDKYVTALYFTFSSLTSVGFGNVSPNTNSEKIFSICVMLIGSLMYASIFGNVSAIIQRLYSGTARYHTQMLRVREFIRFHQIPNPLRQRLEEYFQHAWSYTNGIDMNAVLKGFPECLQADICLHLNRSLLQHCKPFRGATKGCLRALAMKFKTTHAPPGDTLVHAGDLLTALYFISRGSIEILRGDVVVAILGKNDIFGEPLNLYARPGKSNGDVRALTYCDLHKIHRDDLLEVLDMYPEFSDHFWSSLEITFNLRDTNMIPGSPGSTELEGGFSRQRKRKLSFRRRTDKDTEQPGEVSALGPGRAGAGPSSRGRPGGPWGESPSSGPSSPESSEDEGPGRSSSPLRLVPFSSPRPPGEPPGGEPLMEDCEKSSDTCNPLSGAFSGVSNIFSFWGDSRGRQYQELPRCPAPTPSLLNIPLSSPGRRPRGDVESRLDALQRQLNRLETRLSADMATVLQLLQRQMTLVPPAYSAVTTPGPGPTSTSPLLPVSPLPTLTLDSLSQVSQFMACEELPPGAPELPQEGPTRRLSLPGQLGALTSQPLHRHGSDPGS

IC50 (ATF4; [2]) | IC50 (ATF4; [3]) | SMILES | IC50 ([1]; Table 24) | IC50 ([1]; Table 26)
1 to 500 nM | 1 to 500 nM | O=C(COc1ccc(Cl)c(F)c1)N[C@H]1CC[C@H](c2nnc([C@H]3C[C@@H](OC(F)(F)F)C3)o2)NC1 [Example 50, 2-(4-chloro-3-fluorophenoxy)-N-[(3S,6R)-6-{5-[(1s,3s)-3-(trifluoromethoxy)cyclobutyl]-1,3,4-oxadiazol-2-yl}piperidin-3-yl]acetamide] | 1000 to 5000 nM | > 5000 nM
2000 to 15000 nM | 500 to 2000 nM | O=C(COc1ccc(Cl)c(F)c1)N[C@H]1CC[C@H](c2nnc(COC(F)(F)F)o2)NC1 [Example 61, 2-(4-chloro-3-fluorophenoxy)-N-[(3S,6R)-6-(5-[(trifluoromethoxy)methyl]-1,3,4-oxadiazol-2-yl}piperidin-3-yl]acetamide] | 1000 to 5000 nM | 1000 to 5000 nM
